In patent publication US20050226135A1, “Write-once information recording medium” (KABUSHIKI KAISHA TOSHIBA, priority 2004, published 2005):

Assay: solubility in an organic solvent at 20° C. by an ordinary method
Format: physicochemical
Settings: organic solvents of amide, alcohol, ketone, nitrile and halogen systems (chloroform, N,N-dimethyl formamide, methanol, 2,2,3,3-tetrafluoro-1-propanol, ethyl methyl ketone, acetonitrile)

COc1ccc(OC)c(/N=N/C(=N\[N]([Ni][N](/N=C(\N=N\c2cc(OC)ccc2OC)c2ccccn2)c2ccc([N+](=O)[O-])cn2)c2ccc([N+](=O)[O-])cn2)c2ccccn2)c1 [chemical formula 3]
solubility in an organic solvent: practically applicable solubility
